Reference: ChEMBL document CHEMBL1687842, “Different genetic elements carrying the tet(W) gene in two human clinical isolates of Streptococcus suis” (2011)
Converted amounts (≈) assume the structure as drawn.

Assays:
Type in all cases: functional
Streptococcus suis [1] = experiment: Antimicrobial activity against Streptococcus suis UD isolated from cerebrospinal fluid of patient with meningitis by broth microdilution method
Streptococcus suis [2] = experiment: Antimicrobial activity against Streptococcus suis CA isolated from cerebrospinal fluid of patient with meningitis by broth microdilution method
Streptococcus pyogenes = experiment: Ratio of MIC for Streptococcus pyogenes 12RF transconjugant harboring ermB and tetW gene from Streptococcus suis UD to wild type Streptococcus suis UD

Row | Compound | MIC (Streptococcus suis [1]) [µg/mL] | MIC (Streptococcus suis [2]) [µg/mL] | Ratio (Streptococcus pyogenes)
1 | CN(C)[C@@H]1C(O)=C(C(N)=O)C(=O)[C@@]2(O)C(O)=C3C(=O)c4c(O)cccc4[C@@](C)(O)[C@H]3C[C@@H]12 [TETRACYCLINE] | 8 (≈ 18 µM) | 16 (≈ 36 µM) | –
2 | CC[C@H]1OC(=O)[C@H](C)[C@@H](O[C@H]2C[C@@](C)(OC)[C@@H](O)[C@H](C)O2)[C@H](C)[C@@H](O[C@@H]2O[C@H](C)C[C@H](N(C)C)[C@H]2O)[C@](C)(O)C[C@@H](C)C(=O)[C@H](C)[C@@H](O)[C@]1(C)O [ERYTHROMYCIN] | 4 (≈ 5.45 µM) | > 256 | –
3 | CN[C@@H]1[C@H](O[C@H]2[C@H](O[C@H]3[C@H](O)[C@@H](O)[C@H](N=C(N)N)[C@@H](O)[C@@H]3N=C(N)N)O[C@@H](C)[C@]2(O)C=O)O[C@@H](CO)[C@H](O)[C@H]1O [STREPTOMYCIN] | – | – | 8
4 | NC[C@H]1O[C@H](O[C@H]2[C@H](O)[C@@H](O[C@H]3O[C@H](CO)[C@@H](O)[C@H](N)[C@H]3O)[C@H](N)C[C@@H]2N)[C@H](O)[C@@H](O)[C@@H]1O [KANAMYCIN] | – | – | 16
